The subject of experiment [1] is X12P glioma. Briefly: Survival of glioma-bearing mice. It is filed as in vivo. From the text:
(§1) The expression of NKG2DL on tumor cells increases the overall potency of γδ T cell therapy. FIGS. 5A and 5B show the survival of X12P and X12T (TMZ resistant) glioma-bearing mice, respectively, in response to various treatments. […] The DRI treatment regimen increased median survival from 57 to 75 days over the TMZ treatment regimen. […] The DRI treatment regimen increased median survival from 22 to 27 days over the TMZ treatment regimen. The effect of the DRI treatment regimen could be increased by intensification of the administration of the γδ T cells and NK cells from a single administration per week (as shown in FIG. 2) to two administrations per week (data not shown).

Experiment [2] deals with X12T glioma. Briefly: Survival of TMZ-resistant glioma-bearing mice. The class given is in vivo. The settings on record: cells given as single administration per week.
Description: as §1

These results are taken from patent US12005078B2, “Genetically engineered drug resistant T cells and methods of using the same” (The UAB Research Foundation, priority 2015, dated 2024).

Each structure is given as a SMILES string.

For `Cn1nnc2c(C(N)=O)ncn2c1=O` [TMZ, temozolomide], the results for the median survival in experiment [1] and in experiment [2] were 57 days and 22 days, respectively.
